Measurements: patent US20250082781A1, “METHODS OF LOWERING BLOOD GLUCOSE AND TREATING TYPE 2 DIABETES BY ACTIVATION OF PDE4D3” (Salk Institute for Biological Studies, priority 2021, published 2025)

Columns and labels:
Type in all cases: in vivo, mouse
[1] = tested on: endogenous glucose production; experiment: Hyperinsulinemic clamp in ob/ob mice; conditions: FGF1 0.5 mg/kg every other day for a week
Protocol: Before the test, mice were equipped with a permanent catheter in the right atrium via the jugular vein and were allowed to recover over a period of at least 3 days. After the recovery period, the mice were placed in experimental cages. All infusion experiments were performed in conscious, unrestrained mice as described previously (van Dijk et al., 2003). During the experiment, blood glucose levels were determined every 15 minutes using a Lifescan EuroFlash glucose meter. For GC-MS analysis of [U-^13C] glucose, bloodspots on filter paper were collected from the tail vein every 30 minutes.
Ob/ob mice were treated for 1 week with rFGF1 (0.5 mg kg^−1 every other day for one week). Steady state glucose fluxes were determined for basal and hyperinsulinemic-euglycemic clamp conditions. During the first period, mice were infused with a solution containing a tracer of [U-13C] glucose (2.5 mg/ml Cambridge Isotope Laboratories, Andover, MA) at an infusion rate of 0.54 ml/h. With respect to the final period, blood glucose levels were clamped at 20 mM. For this, the mice were infused at a constant rate of 0.135 ml/h with a mixture of insulin (44 mU/ml, Actrapid, Novo Nordisk, Bagsvaerd, Denmark), somatostatin (20 μg/ml, UCB Breda, the Netherlands), 1% BSA, and glucose (200 mg/ml from which 3% [U-^13C] glucose). Additionally, a second (variable) infusion was used containing glucose (200 mg/ml from which 3% [U-^13C] glucose) to adjust blood glucose levels.

[2] = tested on: hepatic gluconeogenic intermediates; experiment: Hepatic metabolite levels (targeted metabolomics, kits)
Protocol: Polar metabolites were extracted and analyzed using a previously reported method (Yuan et al., 2012). Briefly, ob/ob mice were sacrificed by cervical dislocation. Liver pieces (50-100 mg) were snap frozen in liquid nitrogen. 1 ml LC-MS grade 80% methanol chilled at −80° C. was added per 100 mg tissue on dry ice. Samples were homogenized by TissueLyzer and lysates were incubated on dry ice for 30 minutes and centrifuged at 20000 g for 10 minutes. Clarified supernatants were transferred to new tubes. Pellets were extracted again and supernatants were combined. After drying the supernatant under nitrogen gas, extracts were dissolved in H2O (40 μL) and 10 μL were subjected to liquid chromatography mass spectrometry (LC-MS). Polar metabolites were measured by LC-MS using a TSQ Quantiva instrument fitted with a Luna NH2 HPLC column (5.0 μm; 4.6 mm×50 mm, Phenomenex). The following LC solvents were used: buffer A, 95:5 H2O/ACN, 20 mM ammonium hydroxide, 20 mM ammonium acetate; buffer B, 100% ACN. A typical LC run was 23 minutes long with a flow rate of 0.4 ml min-1 and consisted of the following steps: 85 to 30% buffer B over 3 minutes, 30 to 2% buffer B over 9 minutes, 2% buffer B for 3 minutes, 2 to 85% buffer B over 1 minute, and 85% buffer B for 7 minutes. MS analyses were performed using electrospray ionization (ESI) in negative or positive ion mode depending on the metabolites being analyzed. Negative mode and positive mode source parameters were the following: spray voltage 3.5 kV, ion transfer tube temperature of 325° C., and a vaporizer temperature of 275° C.
Liver samples were prepared from HFD-fed mice as described in Pcx activity assay. After determining Pcx activity from sample homogenates, the remaining supernatant was de-proteinated by perchloric acid (PCA)-KOH method using a commercial kit. De-proteinated samples were used to quantify hepatic metabolites using the commercial kits. Hepatic metabolites concentration was normalized to protein concentration and corrected for the loss of volume due to de-proteinization.

[3] = tested on: blood glucose levels; experiment: Blood glucose levels in ob/ob mice
Protocol: Mice were kept in 12 h light/dark cycle in a temperature-controlled environment. Mice had free access to food and water unless noted otherwise. C57/B6 mice background was used unless noted otherwise. C57BL/6J and ob/ob (000632-B6. Cg-Lepob/J) male mice were obtained from Jackson Laboratory. PDE4D knock-out mice (034588-UCD) were obtained from MMRRC. For diet-induced obesity (DIO) studies, mice were fed a high fat diet (HFD) (60% fat, F3282; Bio-Serv) for minimum of 12 weeks to induce insulin resistance when diet-induced obese model is used. Insulin levels and blood glucose levels were monitored to confirm insulin resistance. To generate adipose-specific FGFR1 deletion, adiponectin-cre mice (B6; FVB-Tg (Adipoq-cre)1Evdr/J; Stock: 010803) were crossed to Fgfr1 flox/flox (B6.129S4-Fgfr1tm5.1Sor/J; Stock: 00767) mice. For AAV mediated expression of target proteins in adipose tissue, 5×10E+11 genomic copies of AAV were injected via tail vein or retro-orbital route.
Recombinant FGF1 (rFGF1) was dissolved in phosphate-buffered saline (PBS) at a concentration of 0.2 mg/ml and was injected subcutaneously at a 0.5 mg kg^−1 dose. Blood glucose was monitored at indicated time points after injection. For initial measurements (2-4 h) food was removed after injection to exclude any indirect effects stemming from anorexigenic effects of FGF1. PDE4 inhibitor roflumilast stock in DMSO was diluted at 1 mg/ml in 30% captisol, pH 10 and delivered to mice thorough oral gavage at 5 mg kg^−1 dose. PDE3 inhibitor cilostamide stock in DMSO was diluted at 2 mg/ml in 30% captisol and delivered through intraperitoneal injection at 10 mg kg^−1 dose.

[4] = livers of ob/ob mice 2 h after FGF1 injection

FGF1: Recombinant fibroblast growth factor 1 protein, dissolved in PBS, injected subcutaneously
reduction in basal endogenous glucose production (EGP) [1]: ~25%
exogenous glucose infusion rate (GIR) ([1]; clamp conditions): higher
glucose disposal rate (GDR) ([1]; clamp conditions): not altered
hepatic gluconeogenic substrates ([2]; HFD-fed adR1KO mice, 6 h after FGF1 0.5 mg/kg): insensitive to FGF1 treatment
reductions in hepatic gluconeogenic substrates ([2]; HFD-fed adR1WT mice, 6 h after FGF1 0.5 mg/kg): largely recapitulated
hepatic TCA cycle metabolites [2, 4]: not affected
hepatic acetyl-CoA levels [2, 4]: decreased
hepatic intermediates downstream of pyruvate (G6P, F6P, PG, PEP, OAA) [2, 4]: reduced
blood glucose, FGF1 co-administered with atglistatin ([3]; ad lib fed ob/ob mice, FGF1 0.5 mg/kg + atglistatin 120 mg/kg): no additive effects
blood glucose ([3]; ad lib fed ob/ob mice, FGF1 0.5 mg/kg s.c. as single agent): robustly lowered blood glucose
FGF1-induced reduction in glucose levels in mice overexpressing PDE4D3 ([3]; ob/ob mice with adAAV-PDE4D3, FGF1 0.5 mg/kg): greater reduction in glucose levels
FGF1 glucose response in mice expressing the S44A mutant ([3]; ob/ob mice with adAAV-PDE4D3 S44A, FGF1 0.5 mg/kg): indistinguishable from control mice
